A value given as a limit tells only on which side of the number the result lay.

As usually defined, the IC50 is the point on the concentration scale where inhibition reaches its midpoint. Lower therefore signals greater potency in that assay.

The target in the experiment is T1, Full-length human Chk1 protein (Homo sapiens, UniProt O14757).
T1 construct: purchased Carna Biosciences, Inc. 02-117
T1 sequence (O14757 1-476): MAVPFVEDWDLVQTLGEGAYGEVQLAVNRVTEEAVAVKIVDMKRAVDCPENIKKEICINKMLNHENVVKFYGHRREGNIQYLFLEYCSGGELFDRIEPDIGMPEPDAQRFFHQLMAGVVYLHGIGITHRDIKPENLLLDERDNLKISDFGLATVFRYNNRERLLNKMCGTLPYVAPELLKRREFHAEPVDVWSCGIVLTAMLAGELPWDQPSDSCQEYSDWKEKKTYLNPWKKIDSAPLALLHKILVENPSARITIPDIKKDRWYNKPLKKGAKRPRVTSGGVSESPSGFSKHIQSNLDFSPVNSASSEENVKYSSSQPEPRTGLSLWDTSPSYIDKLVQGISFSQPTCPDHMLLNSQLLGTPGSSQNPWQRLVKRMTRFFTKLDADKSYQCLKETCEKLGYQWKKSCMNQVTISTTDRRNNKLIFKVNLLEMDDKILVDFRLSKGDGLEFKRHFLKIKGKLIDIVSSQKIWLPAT
In words: Kinase HTRF biochemical assay (HTRF KinEASE), Chk1 enzyme activity. As to conditions: full-length human Chk1, ATP 1 mM, 60 minutes at room temperature. How it is done: Example A: Kinase HTRF Biochemical Assay
Chk1 enzyme activity was measured using an HTRF KinEASE assay (Cisbio, catalog no. 62ST1PEC). Full-length human Chk1 protein (GenBank accession number NP_001265.1) was obtained from Carna Biosciences, Inc. (Kobe, Japan, catalog no. 02-117). The enzyme reaction was carried out in assay buffer containing (final concentrations): Chk1 enzyme (0.012 ng/μL), MgCl2 (5 mM) and DTT (1 mM). To determine compound dose response, DMSO stock solutions were serially diluted in a 10-point concentration series in duplicate. Compound solution (50 nL) was added to 384-well assay plates (Greiner, catalog no. 784075). To each well containing compound solution was added assay buffer solution (5 μL). Plates were centrifuged at 1000 rpm for 1 minute, then incubated at room temperature for 10 minutes. The reaction was started by addition of substrate buffer (5 μL/well) containing (final concentrations): STK substrate 1-biotin (120 nM) and ATP (1 mM). Assay plates were centrifuged at 1000 rpm for 1 minute, then incubated at room temperature for 60 minutes. The reaction was stopped by addition of detection buffer (Cisbio, 10 μL) containing (final concentrations): STK antibody-cryptate (0.25 nM) and streptavidin-XL665 (7.5 nM). Plates were centrifuged at 1000 rpm for 1 minute, then incubated at 25° C. for 2 hours. HTRF signal was read on an EnVision multimode plate reader […] in HTRF mode. Data were fit to dose-response curves using XLfit (IDBS, Surrey, UK) or Prism (GraphPad Software, La Jolla, Calif., US) to calculate IC50 values for each compound tested.
(In general: TR-FRET usually uses a lanthanide donor and a delayed reading to cut background.)
The compound `COc1cccc(OC[C@H]2C[C@@H](N)C2)c1-c1cc(Nc2cnc(C#N)cn2)n[nH]1` [Example 1-2, 5-((5-(2-(((1s,3s)-3-aminocyclobutyl)methoxy)-6-methoxyphenyl)-1H-pyrazol-3-yl)amino)pyrazine-2-carbonitrile] came in with a 50% inhibitory concentration (IC50) of more than 1000 nM.

On to `N#Cc1cnc(Nc2cc(-c3nc(C(F)F)ccc3O[C@@H]3CC[C@H](N)C3)[nH]n2)cn1` [Example 3-54, 5-((5-(3-(((1R,3S)-3-aminocyclopentyl)oxy)-6-(difluoromethyl)pyridin-2-yl)-1H-pyrazol-3-yl)amino)pyrazine-2-carbonitrile], for which the half-inhibitory concentration (IC50) was not above 10 nM. Turning to `Cc1nc(-c2cc(Nc3cnc(C#N)cn3)n[nH]2)c(O[C@@H]2CC[C@H](N)C2)cc1Cl` [Example 3-52, 5-((5-(3-(((1R,3S)-3-aminocyclopentyl)oxy)-5-chloro-6-methylpyridin-2-yl)-1H-pyrazol-3-yl)amino)pyrazine-2-carbonitrile], the half-inhibitory concentration (IC50) fell in the range of 100 to 500 nM.

Consider `N#Cc1cnc(Nc2cc(-c3c(F)cccc3O[C@H]3CC[C@H]3N)[nH]n2)cn1` [Example 3-34, 5-((5-(2-((1S,2R)-2-aminocyclobutoxy)-6-fluorophenyl)-1H-pyrazol-3-yl)amino)pyrazine-2-carbonitrile], for which the IC50 was more than 1000 nM. As for `COc1cccc(OCC2CC2N)c1-c1cc(Nc2cnc(C#N)cn2)n[nH]1` (stereo not drawn) [Example 3-55, 5-((5-(2-((2-aminocyclopropyl)methoxy)-6-methoxyphenyl)-1H-pyrazol-3-yl)amino)pyrazine-2-carbonitrile], the figure is not above 10 nM; as for `N#Cc1cnc(Nc2cc(-c3c(OCC4CC4)cccc3O[C@@H]3CC[C@H](N)C3)[nH]n2)cn1` [Example 1-33, 5-((5-(2-(((1R,3S)-3-aminocyclopentyl)oxy)-6-(cyclopropylmethoxy)phenyl)-1H-pyrazol-3-yl)amino)pyrazine-2-carbonitrile], 100 to 500 nM; as for `COc1cccc(O[C@H]2CC[C@H](N)C2)c1-c1cc(Nc2cnc(C#N)cn2)n[nH]1` [Example 1-6, 5-((5-(2-(((1S,3S)-3-aminocyclopentyl)oxy)-6-methoxyphenyl)-1H-pyrazol-3-yl)amino)pyrazine-2-carbonitrile], more than 1000 nM. `N#Cc1cnc(Nc2cc(-c3ccccc3OC3CC4(CC(N)C4)C3)[nH]n2)cn1` (stereo not drawn) [Example 1-54, 5-((5-(2-((6-aminospiro[3.3]heptan-2-yl)oxy)phenyl)-1H-pyrazol-3-yl)amino)pyrazine-2-carbonitrile] gave an IC50 of 10 to 100 nM. `COc1cccc(OC[C@H]2C[C@H](N)C2)c1-c1cc(Nc2cnc(C#N)cn2)n[nH]1` [Example 1-3]: the IC50 is more than 1000 nM. Consider `N#Cc1cnc(Nc2cc(-c3c(F)cccc3O[C@H]3CC[C@@H]3N)[nH]n2)cn1` [Example 3-31, 5-((5-(2-((1S,2S)-2-aminocyclobutoxy)-6-fluorophenyl)-1H-pyrazol-3-yl)amino)pyrazine-2-carbonitrile], for which the concentration for half-maximal inhibition (IC50) was in the range of 100 to 500 nM.

Compound `COc1cccc(O[C@@H]2CCC[C@H](N)C2)c1-c1cc(Nc2cnc(C#N)cn2)n[nH]1` (relative stereo) [Example 1-66] gave a concentration for half-maximal inhibition (IC50) of more than 1000 nM.

For `CC(C)Oc1cccc(O[C@@H]2CC[C@H](N)C2)c1-c1cc(Nc2cnc(C#N)cn2)n[nH]1` [Example 1-24, 5-((5-(2-(((1R,3S)-3-aminocyclopentyl)oxy)-6-isopropoxyphenyl)-1H-pyrazol-3-yl)amino)pyrazine-2-carbonitrile], the IC50 is more than 1000 nM. As for `COc1cccc(O[C@H]2CCC[C@H](N)C2)c1-c1cc(Nc2cnc(C#N)cn2)n[nH]1` [Example 1-65, 5-[[5-[2-[(1S,3S)-3-aminocyclohexoxy]-6-methoxy-phenyl]-1H-pyrazol-3-yl]amino]pyrazine-2-carbonitrile], the figure is more than 1000 nM. Take `N#Cc1cnc(Nc2cc(-c3c(F)cccc3O[C@@H]3CCCC[C@@H](N)C3)[nH]n2)cn1` [Example 3-37, 5-((5-(2-(((1R,3R)-3-aminocycloheptyl)oxy)-6-fluorophenyl)-1H-pyrazol-3-yl)amino)pyrazine-2-carbonitrile]: the 50% inhibitory concentration (IC50) fell in the range of 10 to 100 nM. Take `N#Cc1cnc(Nc2cc(-c3c(OCC(F)(F)F)cccc3O[C@@H]3CC[C@H](N)C3)[nH]n2)cn1` [Example 1-25, 5-((5-(2-(((1R,3S)-3-aminocyclopentyl)oxy)-6-(2,2,2-trifluoroethoxy)phenyl)-1-pyrazol-3-yl)amino)pyrazine-2-carbonitrile]: the IC50 fell in the range of 500 to 1000 nM.

The compound `CC(C)Oc1cccc(O[C@H]2CC[C@H](N)CC2)c1-c1cc(Nc2cnc(C#N)cn2)n[nH]1` [Example 1-18, 5-((5-(2-(((1r,4r)-4-aminocyclohexyl)oxy)-6-isopropoxyphenyl)-1H-pyrazol-3-yl)amino)pyrazine-2-carbonitrile] returned a half-inhibitory concentration (IC50) of 100 to 500 nM. In turn, `COc1cccc(O[C@@H]2CC[C@@H]2N)c1-c1cc(Nc2cnc(C#N)cn2)n[nH]1` [Example 3-4, 5-((5-(2-((1R,2S)-2-aminocyclobutoxy)-6-methoxyphenyl)-1H-pyrazol-3-yl)amino)pyrazine-2-carbonitrile] yielded a half-maximal inhibitory concentration (IC50) of 10 to 100 nM.

In turn, `N#Cc1cnc(Nc2cc(-c3c(F)cccc3O[C@@H]3CCC[C@@H]3N)[nH]n2)cn1` [Example 3-39, 5-((5-(2-(((1R,2S)-2-aminocyclopentyl)oxy)-6-fluorophenyl)-1H-pyrazol-3-yl)amino)pyrazine-2-carbonitrile] returned a half-inhibitory concentration (IC50) of 100 to 500 nM. As for `N#Cc1cnc(Nc2cc(-c3c(F)cccc3OC3CC4(CC(N)C4)C3)[nH]n2)cn1` (stereo not drawn) [Example 3-41, 5-((5-(2-((6-aminospiro[3.3]heptan-2-yl)oxy)-6-fluorophenyl)-1H-pyrazol-3-yl)amino)pyrazine-2-carbonitrile], the figure is 100 to 500 nM.

On to `COc1cccc(O[C@H]2CC[C@H]2N)c1-c1cc(Nc2cnc(C#N)cn2)n[nH]1` [Example 3-3, 5-((5-(2-((1S,2R)-2-aminocyclobutoxy)-6-methoxyphenyl)-1H-pyrazol-3-yl)amino)pyrazine-2-carbonitrile], for which the 50% inhibitory concentration (IC50) was in the range of 100 to 500 nM. `COc1cccc(O[C@H]2CCCC[C@@H](N)C2)c1-c1cc(Nc2cnc(C#N)cn2)n[nH]1` [Example 3-9, 5-((5-(2-(((1S,3R)-3-aminocycloheptyl)oxy)-6-methoxyphenyl)-1H-pyrazol-3-yl)amino)pyrazine-2-carbonitrile] showed an IC50 of 10 to 100 nM. Compound `CN[C@@H]1CC[C@@H](Oc2ccc(Cl)c(F)c2-c2cc(Nc3cnc(C(N)=O)cn3)n[nH]2)C1` [Example 3-23, 5-((5-(3-chloro-2-fluoro-6-(((1R,3R)-3-(methylamino)cyclopentyl)oxy)phenyl)-1H-pyrazol-3-yl)amino)pyrazine-2-carboxamide] came in with a half-maximal inhibitory concentration (IC50) of more than 1000 nM. `Cc1cc(-c2cc(Nc3cnc(C#N)cn3)n[nH]2)c(O[C@@H]2CC[C@H](N)C2)cc1F` [Example 3-17, 5-((5-(2-(((1R,3S)-3-aminocyclopentyl)oxy)-4-fluoro-5-methylphenyl)-1H-pyrazol-3-yl)amino)pyrazine-2-carbonitrile]: the half-maximal inhibitory concentration (IC50) fell in the range of 10 to 100 nM.

`N#Cc1cnc(Nc2cc(-c3c(OCC4CC4)cccc3O[C@H]3CC[C@H](N)CC3)[nH]n2)cn1` [Example 1-31, 5-((5-(2-(((1r,4r)-4-aminocyclohexyl)oxy)-6-(cyclopropylmethoxy)phenyl)-1H-pyrazol-3-yl)amino)pyrazine-2-carbonitrile] gave an IC50 of 100 to 500 nM. As for `Cc1cc(Cl)c(O[C@@H]2CC[C@H](N)C2)c(-c2cc(Nc3cnc(C#N)cn3)n[nH]2)n1` [Example 3-53, 5-((5-(3-(((1R,3S)-3-aminocyclopentyl)oxy)-4-chloro-6-methylpyridin-2-yl)-1H-pyrazol-3-yl)amino)pyrazine-2-carbonitrile], the figure is more than 1000 nM; as for `N#Cc1cnc(Nc2cc(-c3c(OC4CCC4)cccc3O[C@H]3C[C@H](N)C3)[nH]n2)cn1` [Example 1-35, 5-((5-(2-((1r,3r)-3-aminocyclobutoxy)-6-cyclobutoxyphenyl)-1H-pyrazol-3-yl)amino)pyrazine-2-carbonitrile], 100 to 500 nM; as for `Cc1ccc(O[C@H]2CC[C@@H](N)C2)c(-c2cc(Nc3cnc(C#N)cn3)n[nH]2)n1` [Example 3-43, 5-((5-(3-(((1S,3R)-3-aminocyclopentyl)oxy)-6-methylpyridin-2-yl)-1H-pyrazol-3-yl)amino)pyrazine-2-carbonitrile], 100 to 500 nM.

Values taken from patent publication US11707462B2, “Checkpoint kinase 1 (CHK1) inhibitors and uses thereof” (Boundless Bio, Inc., priority 2021, dated 2023).
